According to article PMC10788856, “Mimicking Nonribosomal Peptides from the Marine Actinomycete Streptomyces sp. H-KF8 Leads to Antimicrobial Peptides” (ACS Infectious Diseases, 2023):
≈ marks a conversion by molar mass, not a printed value. Marks after values point to notes of the source that are not given here. Numbered stars: 1 amine (or outer) side, 2 acyl side, 3 side chain; on linkers, the order of the positions; unused ones are H or OH. Bridge positions count the residues as written; N and C are the ends. Square brackets hold non-standard residues; d marks the D form. Peptide text beside a SMILES is read from it. Tyr(3-NO2) = N[C@@H](Cc1ccc(O)c([N+](=O)[O-])c1)C(=O)O; Glutaryl = O=C(CCCC(=O)[*:2])[*:1]; Orn = NCCC[C@H](N)C(=O)O

What was measured:
[1] = tested on: Candida albicans (ATCC 64549/CCUG31028); test: Minimum microbicidal concentration (MMC99) assay; type: cell-based, C. albicans; details: BHI diluted 1/100, 37 °C, median, n = 3
Method: (§1) The microbicidal activity of the synthetic peptides was assessed against S. aureus (ATCC 12600; American Type Culture Collection, Manassas, VA, USA), Escherichia coli (CCUG 31246; Culture Collection, University of Gothenburg, Sweden), and Candida albicans (ATCC 64549/CCUG31028) using an MMC assay, as described previously by […] et al. (specific details in Supporting Information, pages 10, 11).[28] The assay was performed in BHI diluted 1/100 (BHI100). […] page 11: Table S5. Energy and structural ensembles of synthesized peptides. […] Energy -3887.06 -3620.88 -4968.42 -2163.76 -2646.75 Van der Waals solv. Energy 117.32 91.57 183.20 -88.88 -139.89 Mean RMSD* (Å), mean±SD […] Heavy atoms 1.87 ± 0.33 1.77 ± 0.50 0.98 ± 0.34 0.63 ±0.22 2.88 ±0.62 MMC99 activity including salt stability measurements Antimicrobial activity of L2 and L3 in the presence of NaCl. 1Table S6. Peptide MMC99 (μg/ml) sin NaCl S. aureus E.coli C. albicans (mM) 2[…] 0 50 25 25 85 - - - - - - >200 >200 >200 150 - - - - - - >200 >200 >200 3L 0 12.5 12.5 25 12,5 6.3 6.3 12.5 6.3 12.5 […] 150 >400 >400 (-)2 >400 >400 >400 >200 >200 >200 […] or 150 mM NaCl. L2 and L3 were serially diluted in twofold steps with a starting dilution of 200 μg/ml […] All sample dilutions were run in duplicates (L2) or triplicates (L3). 2 The growth of S. aureus at 24 h in BHI 100 with 85 or 150 mM NaCl was reduced. Minimum microbicidal concentration (MMC), killing 99% of the inoculum. All microorganisms were cultured in brain-heart infusion broth (BHI) overnight on a shaker at 37°C. The cultures were thereafter transferred to fresh BHI broth in volumes constituting 10% of total, and incubated for an additional 2 h to reach exponential growth phase. The bacterial cultures were washed once in BHI diluted 1/100 (BHI100), followed by resuspension in BHI100. The cell suspensions were diluted to a density of […] (bacteria) or 2x10^7 CFU/ml (yeast), as estimated by optical density measurement at 590 nm. […] Serum stability Figure S 133. […] A) peptide L2 B) peptide L3. C) peptide L3-K. D) peptide C3.

S. aureus (ATCC 12600) = test: Minimum microbicidal concentration (MMC99) assay; type: cell-based; details: for S. aureus MMC99 6 h / S. aureus MMC99 24 h / S. aureus MMC99 2 h: BHI diluted 1/100, 37 °C, median, n = 3; for S. aureus MMC99 2 h: lowest concentration killing 99% of inoculum, two-fold dilutions 100-1.6 μg/mL
Method: as §1

E. coli CCUG31246 = type: cell-based; details: CCUG31246, 16 h
Method: MICs were performed under the same growth conditions used for mode of action analysis following the guidelines issued by the Clinical Laboratory Standardization Institute (CLSI) with slight modifications. Serial two-fold dilutions of the peptides were prepared in 1:10 BHI in a sterile 96-well plate and subsequently inoculated with 5 × 10^5 CFU/mL of E. coli CCUG31246. […] The following MICs were obtained: C3: 512 μg/mL, L3: 64 μg/mL, and L3-K: 128 μg/mL. These concentrations were used for all mechanistic experiments. Polymyxin B was used as a positive control in all assays at a final concentration of 10 μg/mL.

C. albicans = test: microbe, parasite or virus in culture; type: cell-based; details: for C. albicans MIC: 16 h
S. aureus = test: microbe, parasite or virus in culture; type: cell-based; details: for S. aureus MIC: 16 h
[2] = tested on: Escherichia coli (CCUG 31246); test: Minimum microbicidal concentration (MMC99) assay; type: cell-based, E. coli; details: BHI diluted 1/100, 37 °C, median, n = 3
Method: as §1

[3] = tested on: hepatoblastoma (HepG2) cells; type: cell-based, human
Method: (§2) To confirm the peptide selectivity toward bacteria cells, cytotoxicity assays of synthesized peptides L2, L3, L3-K, and C3 against human embryonic kidney (HEK) and hepatoblastoma (HepG2) were performed (Figure 4). The cell viability was assessed using resazurin 24 h post peptide exposure. The line at 70% cell viability marks out the threshold for cytotoxic potential compared to the negative control.
(§3) Figure 4 Cell viability assessment using the resazurin assay 24 h post peptide exposure: (a) HepG2 and (b) HEK cells were treated with various concentrations of the peptides C3, L3, L3-K, and L2. Triton-X was used as a positive control. Cells cultured in pure cell media were used as negative controls and were considered to have 100% cell viability. The line represents the threshold for cytotoxicity level of 70% of cell viability compared to the negative control. Data are presented as the mean ± SD of three biological replicates of the HepG2 cells and the mean ± SD of two biological replicates of the HEK cells.
(§4) Cytotoxicity against human embryonic kidney (HEK) and hepatoblastoma (HepG2) cell lines was assessed. Cells were grown to an initial seeding density of 10 000 cells per well. Metabolic activity was determined in a resazurin-based assay. HEK and HepG2 cells were exposed to four different concentrations of the peptides for 24 h. Treatment with Triton X-100 at 1% v/v was used as a positive control. Following this exposure period, the cells were treated with resazurin at a final concentration of 0.015 mg/mL for 3 h. The metabolic activity was then determined in an resazurin-based assay. The fluorescence intensities were quantified in a Hidex Sense microplate reader using an excitation wavelength of 544 nm and an emission wavelength of 590 nm.

[4] = 37 °C, RP-HPLC; for stability in human serum: human serum from male AB plasma, 250 μL serum + 100 μL aqueous peptide solution (L2 1 mM; L3 0.9 mM; L3-K 0.7 mM; C3 0.5 mM), 0, 0.5, 1, 4, 24 h, Fmoc-Gly internal standard; for additional peaks / shoulder in chromatogram after 24 h in serum, total volume percentage: human serum, detection at 254 nm
Method: Peptide stability in serum is another limiting factor for AMPs as novel antibiotics.[30]
Peptide serum stability was performed according to D́Aloisio et al.[30] and Chen et al.[51] with some minor modifications. The serum stability was investigated using human serum (Sigma-Aldrich) from Human male AB plasma, USA origin, sterile-filtered. 250 μL serum was temperature-equilibrated at 37 °C and 100 μL aqueous peptide solution (L2: 1 mM; L3: 0.9 mM; L3-K: 0.7 mM; and C3: 0.5 mM) was added. RP-HPLC was measured at time intervals of 0, 0.5, 1, 4, and 24 h. For RP-HPLC samples, 30 μL of peptide solution was taken, 7 μL of Fmoc-Gly solution (4 mM) was added, and 2 μL of the sample was injected to HPLC. […]
Figure S 133. RP-HPLC chromatogram (gradient from 10 to 90% acetonitrile in water over 10 min at 2
ml/min, detection at 254 nm) of peptides tested for serum stability. A) peptide L2 B) peptide L3. C)
(1 picture or pasted object on this page, not shown here)

[5] = tested on: human embryonic kidney (HEK) cells; type: cell-based
Method: as §2, §3, §4

Compound	C. albicans MMC99 2 h [1]	C. albicans MMC99 6 h [1]	C. albicans MMC99 24 h [1]	S. aureus MMC99 6 h (S. aureus (ATCC 12600))	S. aureus MMC99 24 h (S. aureus (ATCC 12600))	S. aureus MMC99 2 h (S. aureus (ATCC 12600))	E. coli MIC (E. coli CCUG31246)	C. albicans MIC (C. albicans)	S. aureus MIC (S. aureus)	further results
CC(C)[C@H]1NC(=O)[C@@H](C)NC(=O)CCCC(=O)NCCCC[C@@H](C(N)=O)NC(=O)[C@@H](C(C)C)NC(=O)[C@@H](CC(=O)O)NC(=O)[C@H]([C@@H](C)O)NC(=O)[C@@H](CC(=O)O)NC(=O)[C@H](Cc2c[nH]c3ccccc23)NC(=O)[C@@H](C)NC1=O [C1] ([dA][dV][dA]W[dD]T[dD][dV]K-NH2; linker N-9 via Glutaryl)	>100 µg/mL	>100 µg/mL	>100 µg/mL	>100 µg/mL	>100 µg/mL	>100 µg/mL	>512 µg/mL	>512 µg/mL	>512 µg/mL	E. coli MMC99 2 h [2]: >100 µg/mL; E. coli MMC99 6 h [2]: >100 µg/mL; E. coli MMC99 24 h [2]: >100 µg/mL
CC(C)[C@H]1NC(=O)[C@H](CCCN)NC(=O)[C@H]([C@@H](C)O)NC(=O)[C@H](CCCN)NC(=O)[C@H](Cc2c[nH]c3ccccc23)NC(=O)[C@@H](C)NC(=O)[C@@H](C(C)C)NC(=O)[C@@H](C)NC(=O)CCCC(=O)NCCCC[C@@H](C(N)=O)NC1=O [C2] ([dA][dV][dA]W[Orn]T[Orn][dV]K-NH2; linker N-9 via Glutaryl)	>100 µg/mL	>100 µg/mL	>100 µg/mL	>100 µg/mL	>100 µg/mL	>100 µg/mL	>512 µg/mL	>512 µg/mL	>512 µg/mL	E. coli MMC99 2 h [2]: >100 µg/mL; E. coli MMC99 6 h [2]: >100 µg/mL; E. coli MMC99 24 h [2]: >100 µg/mL
CC(C)[C@@H](NC(=O)[C@@H](C)N)C(=O)N[C@H](C)C(=O)N[C@@H](Cc1c[nH]c2ccccc12)C(=O)N[C@H](CC(=O)O)C(=O)N[C@H](C(=O)N[C@H](CC(=O)O)C(=O)N[C@@H](C(=O)N[C@@H](CCCCN)C(N)=O)C(C)C)[C@@H](C)O [L1] (H-[dA][dV][dA]W[dD]T[dD][dV]K-NH2)							>512 µg/mL	>512 µg/mL	>512 µg/mL	
CC(C)[C@@H](NC(=O)[C@H](CCCN)NC(=O)[C@@H](NC(=O)[C@H](CCCN)NC(=O)[C@H](Cc1c[nH]c2ccccc12)NC(=O)[C@@H](C)NC(=O)[C@H](NC(=O)[C@@H](C)N)C(C)C)[C@@H](C)O)C(N)=O [L2-K] (H-[dA][dV][dA]W[Orn]T[Orn][dV]-NH2)							>512 µg/mL	>512 µg/mL	>512 µg/mL	
CC(C)[C@@H](NC(=O)[C@H](CCCN)NC(=O)[C@@H](NC(=O)[C@H](CCCN)NC(=O)[C@H](Cc1c[nH]c2ccccc12)NC(=O)[C@@H](C)NC(=O)[C@H](NC(=O)[C@@H](C)NC(=O)[C@@H](N)Cc1c[nH]c2ccccc12)C(C)C)[C@@H](C)O)C(=O)N[C@@H](Cc1ccc(O)c([N+](=O)[O-])c1)C(N)=O [L3-K] (H-W[dA][dV][dA]W[Orn]T[Orn][dV][Tyr(3-NO2)]-NH2)								248 µg/mL	418.7 µg/mL	cytotoxicity, cell viability HepG2 [3]: no cytotoxicity at any tested concentration; stability in human serum [4]: stable after 24 h; additional peaks / shoulder in chromatogram after 24 h in serum, total volume percentage [4]: 1.3%; cytotoxicity, cell viability HEK [5]: no cytotoxicity at any tested concentration
CC(C)[C@@H](NC(=O)[C@H](CCCN)NC(=O)[C@@H](NC(=O)[C@H](CCCN)NC(=O)[C@H](Cc1c[nH]c2ccccc12)NC(=O)[C@@H](C)NC(=O)[C@H](NC(=O)[C@@H](C)NC(=O)[C@@H](N)Cc1c[nH]c2ccccc12)C(C)C)[C@@H](C)O)C(=O)N[C@@H](Cc1ccc(O)c([N+](=O)[O-])c1)C(=O)N[C@@H](CCCCN)C(N)=O [L3] (H-W[dA][dV][dA]W[Orn]T[Orn][dV][Tyr(3-NO2)]K-NH2)							64 µg/mL		248 µg/mL	cytotoxicity, cell viability HepG2 [3]: no cytotoxicity at any tested concentration; stability in human serum [4]: stable after 24 h; additional peaks / shoulder in chromatogram after 24 h in serum, total volume percentage [4]: 0.6%; cytotoxicity, cell viability HEK [5]: no cytotoxicity at any tested concentration
Clc1ccccc1C(c1ccccc1)(c1ccccc1)n1ccnc1 [clotrimazole, reference compound]	>100 ^d μg/mL	>100 ^d μg/mL	>100 ^d μg/mL							MIC (C. albicans; Candida albicans, highest concentration 512 μg/mL, median, n = 3): 4 µg/mL (≈ 11.6 µM)
CC(=O)O[C@H]1C[C@@]2(C)[C@@H](C[C@@H](O)[C@H]3[C@@]4(C)CC[C@@H](O)[C@@H](C)[C@@H]4CC[C@@]32C)/C1=C(\CCC=C(C)C)C(=O)O [fusidic acid, reference compound]				6.3 µg/mL	1.6 µg/mL	25 µg/mL				MMC99 for S. aureus, decreasing over time (S. aureus (ATCC 12600); 2 h to 24 h): 25 to 1.6 μg/mL; MIC (S. aureus; Staphylococcus aureus, read-out: S. aureus MIC): 0.09 µg/mL (≈ 0.174 µM)
